{"source": "patent US9539303B2", "about": "“Treatment of Ras-expressing tumors” (Celgene Corporation, priority 2006, dated 2017)", "key": {"c-Myc": {"system": "c-Myc", "assay": "Tissue biomarker immunoblotting of PANC-1 xenograft tumors: c-Myc", "assay_type": "in vivo", "conditions": "PANC-1 tumors at study completion; FK228 5 mg/kg Q4Dx3, gemcitabine 80 mg/kg Q3Dx4, or both; actin-normalized vs control", "description": "(§1) Specimen Collection: […] Tumor xenograft tissue and serum specimens were obtained from in vivo studies performed by the Preclinical Research Laboratory at the completion of the experiments. […] Serum was obtained from whole blood and stored frozen at -70° C. Tissue Biomarkers: Tumor levels of acetylated histone-4, histone-4, […] were quantified by immunoblotting as described. Briefly, frozen tissue was pulverized under liquid nitrogen and homogenized in hypotonic lysis buffer. Small aliquots of the extracts were used for analysis of protein concentration by micro-BCA assay with bovine serum albumin as a protein standard. An equal amount of extracts containing about 20-50 μg protein was electrophoresed in SDS polyacrylamide gels. Proteins were transferred to ImmunoBlot PVDF membrane and were probed with appropriate primary and secondary antibodies. The chemiluminescence signal was captured by autoradiography, quantified by densitometry and expressed as a ratio of actin in each sample lane. For each biomarker, means and standard errors were calculated in each treatment group. […] Following quantitative analysis of biomarker levels in each sample, the results were normalized for b-actin and expressed as percentages of untreated controls. […]"}, "B-Raf 600E cells": {"system": "B-Raf 600E cells", "assay": "4-day proliferation assay, B-Raf 600E NIH-3T3 cells", "assay_type": "cell-based, mouse", "conditions": "2, 3, or 4 nM romidepsin", "description": "(§2) A series of transformed NIH-3T3 cell likes were generated and a proliferation assay was performed in the presence of 2, 3, or 4 nM romidepsin. FIG. 23 illustrates the transformed morphology of the cells. FIG. 24 presents graphs of cell proliferation."}, "[1]": {"assay": "Animal weight and drug toxicity, BxPC-3 study", "from_the_text": "Model Information—Female nude mice (nu/nu) between 5 and 6 weeks of age weighing approximately 20 grams were obtained from Harlan, Inc. (Madison, Wis.). PANC-1, obtained from the ATCC, is a pancreas tumor cell line originating from a person^(1-2). BxPC-3, obtained from the American Type Culture Collection (ATCC), is a pancreas tumor cell line originating from a person^(3-4). PANC-1 Study: Animals were implanted subcutaneously (SC) by trocar with fragments of PANC-1 harvested from SC growing tumors in nude mice hosts. When tumors grew to approximately 135 cubic millimeters (mm^3) in size (17 days following implantation, animals were pair-matched by tumor size into treatment and control groups; each treatment group contained nine mice. BxPC-3 Study: Animals were implanted subcutaneously (SC) by trocar with fragments of BxPC-3 harvested from SC growing tumors in nude mice hosts. When tumors grew to approximately 85 cubic millimeters (mm^3) in size (19 days following implantation), animals were pair-matched by tumor size into treatment and control groups; each treatment group contained nine mice. Animals in both studies were ear-tagged and followed individually throughout the experiment.\nStudy Design and Dosing—Initial doses were administered on Day 1 following pair-matching; both experiments were carried out as tumor growth inhibition (TGI) studies. Animals were dosed intravenously (IV) via tail vein with FK228 once every four days for three treatments (Q4Dx3) or by intraperitoneal (IP) injection with gemcitabine once every three days for four treatments (Q3Dx4), either alone or in combination, at the doses listed below (Table 1). To serve as a negative control, FK228 vehicle (2% ethanol, 8% propylene glycol, 90% 0.9% saline) was injected on a Q4Dx3 schedule.\nAnimal Weights—Individual and group mean weights±SD and percent weight change through Day 25 (PANC-1) or Day 29 (BxPC-3) were recorded twice weekly until study completion beginning Day 1. Final group mean weights±SD and group nadir values are reported; weight data from individual animals experiencing technical or drug-related deaths was censored from final group calculations.\nMoribundity/Mortality—Animals were observed twice weekly for general moribundity and daily for mortality. Animal deaths were assessed as drug-related or technical based on factors including gross observation and weight loss; reported animal death information includes type, number, and day of death for each group."}, "[2]": {"system": "transformed (H, K, N-Ras and the rat Her-2/NeuT) NIH-3T3 cells", "assay": "4-day proliferation assay, transformed NIH-3T3 cell lines", "assay_type": "cell-based, mouse", "conditions": "2 nM romidepsin", "description": "as §2"}, "acetylated histone 4": {"system": "acetylated histone 4", "assay": "Tissue biomarker immunoblotting of PANC-1 xenograft tumors: acetylated histone 4", "assay_type": "in vivo", "conditions": "PANC-1 tumors at study completion; FK228 5 mg/kg Q4Dx3, gemcitabine 80 mg/kg Q3Dx4, or both", "description": "as §1"}, "[3]": {"system": "BxPC-3 human pancreatic tumor xenograft", "assay": "BxPC-3 human pancreatic tumor xenograft tumor growth inhibition study (Example 3)", "assay_type": "in vivo, female nude mice (nu/nu)", "conditions": "for % TGI / Final tumor volume mean ± SEM: Day 29", "from_the_text": "(§3) (Madison, Wis.). […] Tumor measurements were converted to cubic millimeter tumor volume using the formula^(5): […] TGI values for each treatment group are reported at study completion; these calculations are based on the final study day. […] Individual mice lacking palpable tumors were classified as undergoing complete regression (CR). Animals experiencing partial or complete tumor regressions were censored from TGI calculations. However, data from these animals was included in statistical analysis calculations. In addition, weight data from these animals was included in daily and final group calculations. Tumor Necrosis-Degree of tumor necrosis was rated at each tumor measurement using the following arbitrary index: […]"}, "[4]": {"system": "PANC-1 human pancreatic tumor xenograft", "assay": "PANC-1 human pancreatic tumor xenograft tumor growth inhibition study (Example 3)", "assay_type": "in vivo, female nude mice (nu/nu)", "conditions": "for % TGI / Final tumor volume mean ± SEM: Day 25", "from_the_text": "as §3"}, "[5]": {"conditions": "BxPC-3 study, FK228 2.5 mg/kg IV Q4Dx3"}, "[6]": {"conditions": "BxPC-3 study, FK228 2.5 mg/kg IV Q4Dx3, 2.5 mg/kg"}, "[7]": {"conditions": "BxPC-3 study, FK228 5 mg/kg IV Q4Dx3"}, "[8]": {"conditions": "BxPC-3 study, FK228 5 mg/kg IV Q4Dx3, 5 mg/kg"}, "[9]": {"conditions": "PANC-1 study, FK228 2.5 mg/kg IV Q4Dx3"}, "[10]": {"conditions": "PANC-1 study, FK228 2.5 mg/kg IV Q4Dx3, 2.5 mg/kg"}, "[11]": {"conditions": "PANC-1 study, FK228 5 mg/kg IV Q4Dx3"}, "[12]": {"conditions": "PANC-1 study, FK228 5 mg/kg IV Q4Dx3, 5 mg/kg"}}, "note": "Several values for one entry are separate records, joined by “and”; a condition that tells them apart may be missing. Identical values can stand only once."}
{"smiles": "C/C=C1\\NC(=O)[C@H]2CSSCC/C=C/[C@H](CC(=O)N[C@H](C(C)C)C(=O)N2)OC(=O)[C@H](C(C)C)NC1=O", "note": "[FK228, romidepsin]", "values": [{"measurement": "extent of inhibition of c-Myc expression", "setting": "c-Myc", "value": 50, "unit": "%"}, {"measurement": "potency on proliferation", "setting": "B-Raf 600E cells", "value": "not potent"}, {"measurement": "Final weight data % change", "setting": "[1]; Day 29, FK228 2.5 mg/kg IV Q4Dx3", "value": "+10%"}, {"measurement": "Final weight data mean ± SD", "setting": "[1]; Day 29, FK228 2.5 mg/kg IV Q4Dx3, 2.5 mg/kg", "value": "25±2", "unit": "G"}, {"measurement": "Final weight data % change", "setting": "[1]; Day 29, FK228 5 mg/kg IV Q4Dx3", "value": "+7%"}, {"measurement": "Final weight data mean ± SD", "setting": "[1]; Day 29, FK228 5 mg/kg IV Q4Dx3, 5 mg/kg", "value": "24±1", "unit": "G"}, {"measurement": "Weight nadir % change", "setting": "[1]; FK228 2.5 mg/kg IV Q4Dx3", "value": "−5", "unit": "%"}, {"measurement": "Weight nadir day", "setting": "[1]; FK228 2.5 mg/kg IV Q4Dx3", "value": 11}, {"measurement": "Drug deaths total", "setting": "[1]; FK228 2.5 mg/kg IV Q4Dx3, 2.5 mg/kg", "value": "0/9 and 0"}, {"measurement": "Weight nadir % change", "setting": "[1]; FK228 5 mg/kg IV Q4Dx3", "value": "−15", "unit": "%"}, {"measurement": "Weight nadir day", "setting": "[1]; FK228 5 mg/kg IV Q4Dx3", "value": 11}, {"measurement": "Drug deaths total", "setting": "[1]; FK228 5 mg/kg IV Q4Dx3, 5 mg/kg", "value": "0/9 and 0"}, {"measurement": "inhibition of proliferation, transformed vs untransformed cells", "setting": "[2]", "value": "selectively inhibited"}, {"measurement": "levels of acetylated histone 4 vs control", "setting": "acetylated histone 4", "value": "over 2 fold"}, {"measurement": "% TGI", "setting": "[3]; [5]", "value": "No TGI"}, {"measurement": "Final tumor volume mean ± SEM", "setting": "[3]; [6]", "value": "2440±643", "unit": "mm^3"}, {"measurement": "% TGI", "setting": "[3]; [7]", "value": "No TGI"}, {"measurement": "Final tumor volume mean ± SEM", "setting": "[3]; [8]", "value": "2620±238", "unit": "mm^3"}, {"measurement": "Activity according to NCI standards", "setting": "[3]; [5]", "value": "inactive"}, {"measurement": "Tumor necrosis", "setting": "[3]; [5]", "value": "2/9 animals reported mild tumor necrosis"}, {"measurement": "#PR/CR", "setting": "[3]; [6]", "value": "0/9 and 0/0"}, {"measurement": "Activity according to NCI standards", "setting": "[3]; [7]", "value": "inactive"}, {"measurement": "Tumor necrosis", "setting": "[3]; [7]", "value": "2/9 animals reported mild tumor necrosis"}, {"measurement": "#PR/CR", "setting": "[3]; [8]", "value": "0/9 and 0/0"}, {"measurement": "calculated TGI values", "setting": "[3]; BxPC-3 study, at the evaluated doses and schedules", "value": "No tumor growth inhibition"}, {"measurement": "antitumor activity (overall conclusion)", "setting": "[3]; wildtype ras BxPC-3, all evaluated doses", "value": "inactive"}, {"measurement": "% TGI", "setting": "[4]; [9]", "value": 26, "unit": "%"}, {"measurement": "Final tumor volume mean ± SEM", "setting": "[4]; [10]", "value": "1688±290", "unit": "MM^3"}, {"measurement": "% TGI", "setting": "[4]; [11]", "value": 26, "unit": "%"}, {"measurement": "Final tumor volume mean ± SEM", "setting": "[4]; [12]", "value": "1690±290 MM^3 and 1690 ± 331 MM^3"}, {"measurement": "Activity according to NCI standards", "setting": "[4]; [9]", "value": "inactive"}, {"measurement": "Tumor necrosis", "setting": "[4]; [9]", "value": "1/9 animals reported slight tumor necrosis, 1/9 reported mild tumor necrosis, 2/9 reported moderate necrosis, and 1/9 reported severe necrosis"}, {"measurement": "#PR/CR", "setting": "[4]; [10]", "value": "0/9 and 0/0"}, {"measurement": "Activity according to NCI standards", "setting": "[4]; [11]", "value": "inactive"}, {"measurement": "Tumor necrosis", "setting": "[4]; [11]", "value": "2/9 animals reported slight tumor necrosis, and 1/9 reported moderate necrosis"}, {"measurement": "#PR/CR", "setting": "[4]; [12]", "value": "0/9 and 0/0"}, {"measurement": "calculated TGI values", "setting": "[4]; PANC-1 study, at the evaluated doses and schedules", "value": "less than 58%"}, {"measurement": "antitumor activity (overall conclusion)", "setting": "[4]; ras-transformed PANC-1 model, all evaluated doses", "value": "some activity"}]}
